Measurements as given in publication PMC7352759, “S(+)-(2E)-N-(2-Hydroxypropyl)-3-Phenylprop-2-Enamide (KM-568): A Novel Cinnamamide Derivative with Anticonvulsant Activity in Animal Models of Seizures and Epilepsy” (International Journal of Molecular Sciences, 2020).

Columns and labels:
[1] = Ames microplate format (MPF) assay, TA98; conditions: Salmonella typhimurium
Excerpt: (§1) The Ames microplate format (MPF) mutagenicity assay (Xenometrix, Allschwil, Switzerland) was used to test KM-568 mutagenicity. Growth, exposure, and indicator media, positive control chemicals, and four Salmonella typhimurium strains TA98, TA100, TA1535 and TA1537 were included in the kit. TA100 and TA1535 strains detect base substitution mutations, whereas TA98 and TA1537 indicate frameshift mutations. The strains of bacteria included in a kit are in compliance with the Organization for Economic Cooperation and Development (OECD) 471 Guideline for Testing of Chemicals.
(§2) The assay is a liquid microplate modification of the traditional Salmonella test. During the procedure, bacteria are exposed to different concentrations of a test compound for 90 min in a medium containing sufficient histidine to support cell divisions. Then, the cultures are diluted in a pH indicator medium lacking histidine and aliquoted into 48 wells of a 384-well plate. Within 2 days, bacteria that have undergone reversion to amino acid prototrophy will form colonies. Products of bacteria metabolism reduce pH of the medium, changing the color of wells from purple to yellow.
(§3) The test procedure provided by Xenometrix and described in detail elsewhere was followed. Bacterial strains were grown overnight (14–16 h) in exposure medium in a shaker incubator and then exposed to KM-568 in 24-well plates for 90 min at 37 °C with agitation. Final KM-568 concentrations in the assay were 0.1, 0.2, and 0.5 mM. After preincubation, the cultures were diluted in the indicator medium and the contents of each 24-well culture were transferred to 48 wells on a 384-well plate and incubated further for 48 h at 37 °C without agitation. After the exposure, the number of wells containing bacteria was scored for yellow wells. […] Pure DMSO was used as a negative control. All doses were performed in triplicate.
(§4) The fold increase of revertants relative to the solvent control was determined by dividing the mean number of positive wells at each dose by the solvent control at baseline. The solvent control at baseline was calculated as the mean number of positive wells in the solvent control plus one standard deviation (SD). When an increase of more than twofold relative to the baseline at more than one dose with a dose–response was observed, the sample was classified as positive, whereas when no response > 2 times the baseline and no dose–response was stated, the sample was classified as negative.

[2] = Ames microplate format (MPF) assay, TA1537; conditions: Salmonella typhimurium
Excerpt: as §1, §2, §3, §4

[3] = system: Salmonella typhimurium TA1535; experiment: Ames microplate format (MPF) assay, TA1535; conditions: TA1535, positive control at 100 µg/mL
Excerpt: as §1, §2, §3, §4

mice [4] = conditions: mice i.p.; cited from earlier work
mice [5] = conditions: mice i.p.; cited from earlier work; remark: listed apart in the source
rats = system: rats; design: method as in doi:10.2174/157018012798192982; conditions: rats p.o.; cited from earlier work

Structure (SMILES)	scMET ED50 (mice [4])	MES ED50 (mice [5])	also measured
O=[N+]([O-])c1ccc2c(c1)Cc1ccccc1-2 [2-NF, 2-nitrofluorene, reference compound]			fold induction at 90 min, 2 µg/mL [1]: 6.4
Nc1c2ccccc2nc2ccccc12 [9-AAc, 9-aminoacridine, reference compound]			fold induction at 90 min, 15 µg/mL [2]: 48
NNc1ccn([C@@H]2O[C@H](CO)[C@@H](O)[C@H]2O)c(=O)n1 [N4-ACT, N-4-aminocytidine, reference compound]			fold induction of the number of positive wells over baseline [3]: 14.7 fold
O=C(/C=C/c1ccccc1)N1CCCC(O)C1 (stereo not drawn) [R,S-(2E)-1-(3-hydroxypiperidin-1-yl)-3-phenylprop-2-en-1-one]	82.3 mg/kg	55.0 mg/kg	
CC(O)CNC(=O)/C=C/c1ccc(Cl)cc1 (stereo not drawn) [R,S-(2E)-3-(4-chlorophenyl)-N-(2-hydroxypropyl)prop-2-enamide]	102.2 mg/kg	55.6 mg/kg	
CC(O)CNC(=O)/C=C/c1ccccc1 (stereo not drawn) [R,S-(2E)-N-(2-hydroxypropyl)-3-phenylprop-2-enamide]			scMET (pharmacological parameter, ED50) (mice [4]): 77.1 mg/kg; MES (pharmacological parameter, ED50) (mice [5]): 47.1 mg/kg; MES (pharmacological parameter, ED50) (rats): 22.8 mg/kg
Cc1ccccc1/C=C/C(=O)N[C@@H](C)CO [S-(2E)-N-(1-hydroxypropan-2-yl)-3-(2-methylphenyl)prop-2-enamide]	58.4 mg/kg	42.6 mg/kg	
